In patent EP0938471B1, “THE PREPARATION AND USE OF ORTHO-SULFONAMIDO ARYL HYDROXAMIC ACIDS AS MATRIX METALLOPROTEINASE AND TACE INHIBITORS” (priority 1996, dated 1998):
Where two headings read alike, the source gives them in different places.

Legend:
Assay type in all cases: biochemical
MMP-1 = target: T1, MMP-1 (Homo sapiens, UniProt P03956); assay: MMP-1 inhibition (thiopeptide or fluorescent peptide substrate assay)
T1 sequence (P03956 100-469): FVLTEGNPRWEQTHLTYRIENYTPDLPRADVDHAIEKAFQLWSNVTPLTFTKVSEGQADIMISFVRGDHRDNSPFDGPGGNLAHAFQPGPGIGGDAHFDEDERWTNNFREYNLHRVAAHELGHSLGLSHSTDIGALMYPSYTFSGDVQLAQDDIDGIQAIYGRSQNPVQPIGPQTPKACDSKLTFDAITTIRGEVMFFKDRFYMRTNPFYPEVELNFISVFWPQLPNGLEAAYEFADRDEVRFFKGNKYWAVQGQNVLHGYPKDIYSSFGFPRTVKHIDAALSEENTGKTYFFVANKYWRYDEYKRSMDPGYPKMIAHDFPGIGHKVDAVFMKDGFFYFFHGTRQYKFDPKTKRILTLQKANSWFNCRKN

MMP-9 = MMP-9 (Homo sapiens, UniProt P14780); assay: MMP-9 inhibition (thiopeptide or fluorescent peptide substrate assay)
TACE = TACE (Homo sapiens, UniProt P78536); assay: TACE inhibition (fluorescent peptidyl substrate); conditions: for inhibition at 1 µM: at 1µM concentration
MMP-13 = MMP-13 (Homo sapiens, UniProt P45452); assay: MMP-13 inhibition (thiopeptide or fluorescent peptide substrate assay)

TACE, sequence (P78536 215-824): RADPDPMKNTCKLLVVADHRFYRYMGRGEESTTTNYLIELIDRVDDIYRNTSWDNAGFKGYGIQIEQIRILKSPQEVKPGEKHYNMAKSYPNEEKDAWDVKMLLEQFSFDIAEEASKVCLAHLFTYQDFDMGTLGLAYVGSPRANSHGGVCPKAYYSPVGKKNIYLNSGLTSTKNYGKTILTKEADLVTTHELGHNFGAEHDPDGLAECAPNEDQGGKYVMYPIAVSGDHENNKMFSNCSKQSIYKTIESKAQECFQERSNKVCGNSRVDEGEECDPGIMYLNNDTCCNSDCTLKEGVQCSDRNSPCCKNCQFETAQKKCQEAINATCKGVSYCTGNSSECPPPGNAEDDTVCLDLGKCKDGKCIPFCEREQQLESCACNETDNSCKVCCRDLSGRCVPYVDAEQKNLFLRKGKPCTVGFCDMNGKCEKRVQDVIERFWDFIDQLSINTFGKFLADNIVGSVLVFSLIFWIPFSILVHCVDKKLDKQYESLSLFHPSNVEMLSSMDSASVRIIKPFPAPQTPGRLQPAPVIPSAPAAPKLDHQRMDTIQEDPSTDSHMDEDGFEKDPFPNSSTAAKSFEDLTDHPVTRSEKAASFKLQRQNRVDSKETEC
MMP-9, sequence (P14780 94-707): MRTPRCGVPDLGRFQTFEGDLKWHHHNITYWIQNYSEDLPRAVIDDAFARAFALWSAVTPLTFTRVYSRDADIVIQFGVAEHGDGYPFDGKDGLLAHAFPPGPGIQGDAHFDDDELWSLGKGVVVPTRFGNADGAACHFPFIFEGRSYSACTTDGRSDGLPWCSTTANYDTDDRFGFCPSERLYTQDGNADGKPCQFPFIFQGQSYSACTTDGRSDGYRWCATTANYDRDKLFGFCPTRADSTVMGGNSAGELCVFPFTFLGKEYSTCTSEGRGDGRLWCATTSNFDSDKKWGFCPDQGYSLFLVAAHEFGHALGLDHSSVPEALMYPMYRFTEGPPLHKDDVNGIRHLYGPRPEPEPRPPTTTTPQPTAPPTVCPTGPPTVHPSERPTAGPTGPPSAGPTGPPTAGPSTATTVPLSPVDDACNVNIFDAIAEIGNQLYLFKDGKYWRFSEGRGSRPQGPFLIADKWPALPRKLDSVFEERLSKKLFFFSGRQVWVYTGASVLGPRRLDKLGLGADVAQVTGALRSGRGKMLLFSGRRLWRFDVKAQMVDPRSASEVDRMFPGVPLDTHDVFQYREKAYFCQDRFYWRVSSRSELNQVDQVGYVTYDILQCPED

Row | IC50 (MMP-1; read-out: MMP-1 IC50) [nM] | IC50 (MMP-9; read-out: MMP-9 IC50) [nM] | inhibition at 1 µM (TACE) [%] | IC50 (MMP-13; read-out: MMP-13 IC50) [nM] | IC50 (TACE; read-out: TACE IC50) [nM] | Structure (SMILES) | IC50 (MMP-1) [nM] | IC50 (MMP-9) [nM] | IC50 (TACE) [nM] | IC50 (MMP-13) [nM]
1 | 104 | 11 |  | 27 | 1000 | COc1ccc(S(=O)(=O)N(Cc2ccccc2)c2c(Br)cccc2C(=O)NO)cc1 [Example 201, 3-Bromo-2-[benzyl-(4-methoxybenzenesulfonyl)amino]-N-hydroxy-benzamide] |  |  |  | 
2 | 1120 | 2 |  | 2.5 | 375 | CCCCCCCCN(C)C(=O)C=Cc1cc(C)c(N(C)S(=O)(=O)c2ccc(OC)cc2)c(C(=O)NO)c1 [Example 207, N-Hydroxy-2-[(4-methoxy-benzenesulfonyl)-methyl-amino]-3-methyl-5-[2-(methyl-octyl-carbamoyl)-vinyl]-benzamide] |  |  |  | 
3 | 415 | 5.2 |  | 11 | 314 | CCCCCCCCN(C)C(=O)CCc1cc(C)c(N(C)S(=O)(=O)c2ccc(OC)cc2)c(C(=O)NO)c1 [Example 212, N-Hydroxy-2-[(4-methoxy-benzenesulfonyl)-methyl-amino]-3-methyl-5-[2-(methyl-octyl-carbamoyl)-ethyl]-benzamide] |  |  |  | 
4 |  |  |  |  |  | COc1ccc(S(=O)(=O)N(C)c2c(C)cc(C=CC(=O)N(C)C)cc2C(=O)O)cc1 [Example 214, 5-(2-Dimethylcarbamoyl-vinyl)-2-[(4-methoxy-benzenesulfonyl)-methyl-amino]-3-methyl-benzoic acid] | 423 | 6.4 | 232 | 19
5 | 290 | 6.7 |  | 5.8 | 548 | CCN(Cc1ccncc1)C(=O)C=Cc1cc(C)c(N(C)S(=O)(=O)c2ccc(OC)cc2)c(C(=O)NO)c1 [Example 219, 5-[2-(Ethyl-pyridin-4-ylmethyl-carbamoyl)-vinyl]-N-hydroxy-2-[(4-methoxy-benzenesulfonyl)-methyl-amino]-3-methyl-benzamide] |  |  |  | 
6 | 957 | 11 |  | 14 | 715 | CCCCCCCCN(C)C(=O)C=Cc1cc(C)c(N(Cc2cccnc2)S(=O)(=O)c2ccc(OC)cc2)c(C(=O)NO)c1 [Example 224, N-Hydroxy-2-[(4-methoxy-benzenesulfonyl)-pyridin-3-ylmethyl-amino]-3-methyl-5-[2-(methyl-octyl-carbamoyl)-vinyl]-benzamide] |  |  |  | 
7 | 193 | 3.1 |  | 4.1 | 446 | COc1ccc(S(=O)(=O)N(Cc2cccnc2)c2c(C)cc(C=CC(=O)N(C)C)cc2C(=O)NO)cc1 [Example 227, 5-(2-Dimethylcarbamoyl-vinyl)-N-hydroxy-2-[(4-methoxy-benzenesulfonyl)-pyridin-3-ylmethyl-amino]-3-methyl-benzamide] |  |  |  | 
8 | 20 | 2.4 | 47 | 1.9 |  | CCN(C(=O)C=Cc1cc(C)c(N(Cc2cccnc2)S(=O)(=O)c2ccc(OC)cc2)c(C(=O)NO)c1)c1ccccc1 [Example 230, 5-[2-(Ethyl-phenyl-carbamoyl)-vinyl]-N-hydroxy-2-[(4-methoxy-benzenesulfonyl)-pyridin-3-ylmethyl-amino]-3-methyl-benzamide] |  |  |  | 
9 | 32 | 2.3 |  | 1.8 | 450 | C=CCN(CC=C)C(=O)C=Cc1cc(C)c(N(Cc2cccnc2)S(=O)(=O)c2ccc(OC)cc2)c(C(=O)NO)c1 [Example 233, 5-(2-Diallylcarbamoyl-vinyl)-N-hydroxy-2-[(4-methoxy-benzenesulfonyl)-pyridin-3-ylmethyl-amino]-3-methyl-benzamide] |  |  |  | 
10 | 86 | 3.5 |  | 1.6 | 548 | COc1ccc(S(=O)(=O)N(Cc2cccnc2)c2c(C)cc(C=CC(=O)N3CCOCC3)cc2C(=O)NO)cc1 [Example 240] |  |  |  | 
11 | 528 | 6.6 |  | 3.1 | 66 | COc1ccc(S(=O)(=O)N(Cc2cccnc2)c2c(C)cc(-c3ccccc3C=NO)cc2C(=O)NO)cc1 [Example 243, 2'-(Hydroxyimino-methyl)-4-[(4-methoxy-benzenesulfonyl)-pyridin-3-ylmethyl-amino]-5-methyl-biphenyl-3-carboxylic acid hydroxyamide] |  |  |  | 
12 | 106 | 6 |  | 3.6 | 56 | COc1ccc(S(=O)(=O)N(Cc2cccnc2)c2c(C)cc(-c3cccc(C=NO)c3)cc2C(=O)NO)cc1 [Example 246, 3'-(Hydroxyimino-methyl)-4-[(4-methoxy-benzenesulfonyl)-pyridin-3-ylmethyl-amino]-5-methyl-biphenyl-3-carboxylic acid hydroxyamide] |  |  |  | 
13 | 231 | 2.8 |  | 6 | 100 | COc1ccc(S(=O)(=O)N(Cc2cccnc2)c2c(C)cc(-c3ccc(C=NO)cc3)cc2C(=O)NO)cc1 [Example 249, 4'-(Hydroxyimino-methyl)-4-[(4-methoxy-benzenesulfonyl)-pyridin-3-ylmethyl-amino]-5-methyl-biphenyl-3-carboxylic acid hydroxyamide] |  |  |  | 
14 | 652 | 15 |  | 10 | 346 | COc1ccc(S(=O)(=O)N(Cc2cccnc2)c2c(C)cc(-c3ccccc3C(F)(F)F)cc2C(=O)NO)cc1 [Example 252, 4-[(4-Methoxy-benzenesulfonyl)-pyridin-3-ylmethyl-amino]-5-methyl-2'-trifluoromethyl-biphenyl-3-carboxylic acid hydroxyamide] |  |  |  | 
15 | 48 | 7.1 |  | 3.2 | 65 | COc1ccc(S(=O)(=O)N(Cc2cccnc2)c2c(C)cc(-c3ccco3)cc2C(=O)NO)cc1 [Example 255, 5-Furan-2-yl-N-hydroxy-2-[(4-methoxy-benzenesulfonyl)-pyridin-3-ylmethyl-amino]-3-methyl-benzamide] |  |  |  | 
16 | 169 | 8 |  | 7 | 110 | COc1ccc(S(=O)(=O)N(Cc2cccnc2)c2c(C)cc(-c3sccc3C=NO)cc2C(=O)NO)cc1 [Example 258, N-Hydroxy-5-[3-(hydroxyimino-methyl)-thiophen-2-yl]-2-[(4-methoxy-benzenesulfonyl)-pyridin-3-ylmethyl-amino]-3-methyl-benzamide] |  |  |  | 
17 | 247 | 1.3 |  | 2.8 | 54 | COc1ccc(S(=O)(=O)N(Cc2cccnc2)c2c(C)cc(-c3ccc(Cl)s3)cc2C(=O)NO)cc1 [Example 261, 5-(5-Chloro-thiophen-2-yl)-N-hydroxy-2-[(4-methoxy-benzenesulfonyl)-pyridin-3-ylmethyl-amino]-3-methyl-benzamide] |  |  |  | 
18 | 159 | 3.7 |  | 6.4 | 77 | COc1ccc(S(=O)(=O)N(Cc2cccnc2)c2c(C)cc(-c3ccc(C(C)=O)s3)cc2C(=O)NO)cc1 [Example 264, 5-(5-Acetyl-thiophen-2-yl)-N-hydroxy-2-[(4-methoxy-benzenesulfonyl)-pyridin-3-ylmethyl-amino]-3-methyl-benzamide] |  |  |  | 
19 | 59 | 3 |  | 13 | 136 | C=Cc1cc(C)c(N(Cc2ccccc2)S(=O)(=O)c2ccc(OC)cc2)c(C(=O)NO)c1 [Example 267, 2-[Benzyl-(4-methoxy-benzenesulfonyl)-amino]-N-hydroxy-3-methyl-5-vinyl-benzamide] |  |  |  | 
20 | 56 | 4 |  | 4 | 34 | CCc1cc(C)c(N(Cc2cccnc2)S(=O)(=O)c2ccc(OC)cc2)c(C(=O)NO)c1 [Example 277, 5-Ethyl-N-hydroxy-2-[(4-methoxy-benzenesulfonyl)-pyridin-3-ylmethyl-amino]-3-methyl-benzamide] |  |  |  | 
21 | 312 | 6 |  | 9.8 | 61 | COc1ccc(S(=O)(=O)N(Cc2cccnc2)c2c(C)cc(-c3cccnc3)cc2C(=O)NO)cc1 [Example 285, N-Hydroxy-2-[(4-methoxy-benzenesulfonyl)-pyridin-3-ylmethyl-amino]-3-methyl-5-pyridin-3-yl-benzamide] |  |  |  | 
22 | 184 | 8 | 7 | 29 |  | COc1ccc(S(=O)(=O)N(Cc2ccccc2)c2c(C)ccc(C)c2C(=O)NO)cc1 [Example 292, 2-[Benzyl-(4-methoxy-benzenesulfonyl)-amino]-N-hydroxy-3,6-dimethyl-benzamide] |  |  |  | 
23 | 297 | 9 | 58 | 14 |  | COc1ccc(S(=O)(=O)N(Cc2cccnc2)c2c(C)ccc(C)c2C(=O)NO)cc1 [Example 297, N-Hydroxy-2-[(4-methoxy-benzenesulfonyl)-pyridin-3-ylmethyl-amino]-3,6-dimethyl-benzamide] |  |  |  | 
24 | 211 | 6.9 |  | 8.7 | 1480 | COc1ccc(S(=O)(=O)N(Cc2cccnc2)c2c(C)cc(-c3cc(-c4ccc(C)o4)no3)cc2C(=O)NO)cc1 [Example 301, N-Hydroxy-2-[(4-methoxy-benzenesulfonyl)-pyridin-3-ylmethyl-amino]-3-methyl-5-[3-(5-methyl-furan-2-yl)-isoxazol-5-yl]-benzamide] |  |  |  | 

Row | Structure (SMILES) | IC50 (MMP-1; read-out: MMP-1 IC50) [nM] | IC50 (MMP-9; read-out: MMP-9 IC50) [nM] | inhibition at 1 µM (TACE) [%] | IC50 (MMP-13; read-out: MMP-13 IC50) [nM] | IC50 (TACE; read-out: TACE IC50) [nM] | IC50 (MMP-1) [nM] | IC50 (MMP-9) [nM] | IC50 (TACE) [nM] | IC50 (MMP-13) [nM]
25 | COc1ccc(S(=O)(=O)N(Cc2ccccc2)c2c(OC(C)(C)C(=O)NO)cccc2C(=O)NO)cc1 [Example 197] | 711 | 5 | 32 | 6 |  |  |  |  | 
